Assay results taken from ChEMBL document CHEMBL1150293, “The pyridoxamine action on Amadori compounds: A reexamination of its scavenging capacity and chelating effect” (Bioorg Med Chem, 2008).

Assay: Aqueous stability assessed as half life at pH 7.4 by HPLC
Format: physicochemical
Settings: aqueous solution

Structure (SMILES) | half-life [h]
O=C(CN1CCOCC1)[C@@H](O)[C@H](O)[C@H](O)CO | 92
O=C(CN[C@H](Cc1c[nH]c2ccccc12)C(=O)O)[C@@H](O)[C@H](O)[C@H](O)CO | 25
